Structures can show the parent of a compound that is named as a salt. Marks after values point to notes of the source that are not given here.
What was measured:
[1] = Clinical comparative pharmacokinetic study, 3-period cross-over, single oral doses, plasma samples; format: in vivo, human
Procedure: A clinical comparative pharmacokinetic study was performed to understand the pharmacokinetic profile of metopimazine mesylate Crystal Form A in comparison to the free base of metopimazine. This study was as a 3-period, cross-over design with 3 administrations of single doses: oral formulation of metopimazine mesylate Crystal Form A fasting, oral formulation of metopimazine mesylate Crystal Form A after a high-fat breakfast, and oral formulation of metopimazine free base fasting, with a wash-out period of 48 hours between each administration. Fifteen subjects were enrolled and received each of the 3 treatment. Plasma samples from each subject were analyzed for various pharmacokinetic parameters. Mixed model repeated measures (MMRM) analysis was performed on each sample.
The second objective of this study was to compare the pharmacokinetics of metopimazine mesylate Crystal Form A administered as an oral administration of a single dose of 15 mg orally in 15 human subjects either in a fasted state or after a high fat breakfast. Plasma samples from each subject were analyzed for various pharmacokinetic parameters. […] Both Cmax and AUC are well within the 90% confidence interval.

[2] = before and after a high fat breakfast; cited from earlier work
[3] = 15 mg single oral dose, n = 15, fasted
[4] = 90% confidence interval of ratio fasted vs fed
[5] = 90% confidence interval of ratio fasted vs fed, marked bioequivalence
[6] = single dose of 15 mg orally, 15 human subjects

Structure (SMILES) | Tmax CV % [1, 3] [%] | Tmax Max [1, 3] [h] | Tmax Median [1, 3] [h] | Tmax Min [1, 3] [min] | Tmax Mean ([1]; 15 mg single oral dose, n = 15, fasted, plasma) [h] | Reduction in AUC (food effect) [2] [%] | Reduction in Cmax (food effect) [2] [%] | Variance of Tmax values compared with metopimazine free base ([1]; 15 mg oral, fasted, MMRM analysis) | Change in AUC when administered with food ([1]; 15 mg oral, fed vs fasted) | Reduction in Cmax when administered with food ([1]; 15 mg oral, fed vs fasted) | AUC0-inf GLSM Ratio fasted vs fed (%) ([1]; 15 mg, n = 15) | Cmax GLSM Ratio fasted vs fed (%) ([1]; 15 mg, n = 15) | Cmax ratio Lower CI % [1, 4] [%] | Cmax ratio Upper CI % [1, 4] [%] | AUC0-inf ratio Lower CI % [1, 5] | AUC0-inf ratio Upper CI % [1, 5] | Geometric mean difference in AUC, high fat breakfast vs fasted [1, 6] | Geometric mean difference in Cmax, high fat breakfast vs fasted [1, 6]
CS(=O)(=O)c1ccc2c(c1)N(CCCN1CCC(C(N)=O)CC1)c1ccccc1S2 [Metopimazine free base, 1-(3-(2-(methylsulfonyl)-10H-phenothiazin-10-yl)propyl)piperidine-4-carboxamide, reference compound] | 77.33 | 4.00 | 1.00 | 30 | 1.27 | 23 | 58 |  |  |  |  |  |  |  |  |  |  | 
CS(=O)(=O)c1ccc2c(c1)N(CCCN1CCC(C(N)=O)CC1)c1ccccc1S2 [Metopimazine mesylate Crystal Form A, 1-(3-(2-(methylsulfonyl)-10H-phenothiazin-10-yl)propyl)piperidine-4-carboxamide methanesulfonic acid] | 34.25 | 1.50 |  | 30 |  |  |  | statistically significantly lower variance | no notable change in AUC | approximately 15% | 93.63 | 84.07 | 63.82 | 110.75 | 86.00* % | 101.93* % | not statistical difference | slightly but significantly lower

Source: US20230142366A1, “NOVEL POLYMORPHIC FORMS OF METOPIMAZINE” (Neurogastrx, Inc., priority 2020, published 2023)
